Experimental data reported in PMC7901650, “Garcinoic Acid Is a Natural and Selective Agonist of Pregnane X Receptor” (Journal of Medicinal Chemistry, 2020).

Columns and labels:
LXRβ receptor = molecular target: T1, LXRβ receptor (Homo sapiens, UniProt P55055); experiment: AlphaScreen nuclear receptor panel, LXRβ; assay type: biochemical
T1 construct: GST-LBD
T1 sequence (P55055 222-460 limits assumed): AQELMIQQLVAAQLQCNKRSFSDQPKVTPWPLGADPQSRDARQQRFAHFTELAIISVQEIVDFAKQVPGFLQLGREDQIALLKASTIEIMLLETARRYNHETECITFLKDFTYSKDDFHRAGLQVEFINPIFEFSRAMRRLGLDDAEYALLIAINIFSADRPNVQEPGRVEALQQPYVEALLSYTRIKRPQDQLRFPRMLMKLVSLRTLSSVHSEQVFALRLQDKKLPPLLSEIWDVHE
Description: (§1) Ligand binding activity of GA (1) was explored via AlphaScreen technology over a panel of NRs that, along with hPXR (Figure 1A), included major human endocrine and metabolic receptors, such as the retinoid X receptor (RXR), constitutive androstane receptor (CAR), farnesoid X receptor (FXR), vitamin D receptor (VDR), liver X receptor (LXR) forms α and β, and the PPAR isoforms α, δ, and γ (see Figure S1). GA (1) was compared to its analogue δ-tocotrienol (5), the vitamers 3 and 4, their short-chain metabolites (SCMs) α-CEHC (10) and γ-CEHC (11), and the LCMs 2 and 8 (Chart 1). The test was performed in the presence of reference standard agonists for the different NRs.
(§2) The activity of nuclear receptors was determined using AlphaScreen technology, a recruitment coactivator assay previously described.[56]
(§3) (A) The test was carried out at 10 μM compound final concentration. Ligand binding to nuclear receptors was expressed as luminescence units. […] Vehicle was assessed to obtain a measure of background signal (basal evaluation). […] In presence of the ligand, the nuclear receptor LBD undergoes conformational changes, binds to the coactivator and the chemical energy is transferred from donor to acceptor beads in order to produce a signal, i.e. luminescence; in this case the compounds behaves as agonist, changing the conformation of the receptor to recruit the coactivator. […]

CAR = molecular target: T2, CAR (Homo sapiens, UniProt Q14994); experiment: AlphaScreen nuclear receptor panel, CAR; assay type: biochemical
T2 construct: GST-LBD
T2 sequence (Q14994 109-352 limits assumed): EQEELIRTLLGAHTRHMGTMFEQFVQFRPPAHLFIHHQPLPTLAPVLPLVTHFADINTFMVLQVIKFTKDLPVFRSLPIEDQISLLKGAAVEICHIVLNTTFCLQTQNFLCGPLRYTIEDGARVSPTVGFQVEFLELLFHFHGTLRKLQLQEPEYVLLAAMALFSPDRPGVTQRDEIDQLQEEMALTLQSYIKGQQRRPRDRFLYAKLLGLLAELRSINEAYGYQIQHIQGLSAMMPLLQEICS
Description: as §1, §2, §3

C/C(=C\CC/C(C)=C/CC[C@]1(C)CCc2cc(O)cc(C)c2O1)CC/C=C(\C)C(=O)O [GA (1), (2E,6E,10E)-13-[(2R)-6-hydroxy-2,8-dimethyl-chroman-2-yl]-2,6,10-trimethyltrideca-2,6,10-trienoic acid]
Agonist activity at LXRβ (LXRβ receptor): low activity
Effect on CAR (constitutive activation) (CAR): partially inhibited
